The supplement of paper PMC10307832

What was measured:
Assay in all cases: relative viability (nuclei count vs DMSO), 5 days (fraction); higher = more cells survive
[1] = compound: C1CC1C(=O)NC2=NNC3=C2C=CC(=C3)C4=CC(=CC=C4)C(=O)NC5CC5 [XMD13-2] + COc1cc2c(Oc3ccc(NC(=O)C4(C(=O)Nc5ccc(F)cc5)CC4)cc3F)ccnc2cc1OCCCN1CCOCC1 [Foretinib] (partner 0.25 µM)
Method in brief: (§1)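 Lung cancer cell lines were pin-tool dosed in 1536-well plates on the day after seeding, with either a lone drug or a fixed anchor-drug dose plus five library-drug doses (not always all listed) in √10 steps. Nuclei were counted on 4× images after 5 days. Relative viability is the ratio of treated-well to vehicle-well nuclei counts, with each value a median of duplicate plates.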

[2] = compound: C1CC1C(=O)NC2=NNC3=C2C=CC(=C3)C4=CC(=CC=C4)C(=O)NC5CC5 [XMD13-2] + CC1(C)CCC(c2ccc(Cl)cc2)=C(CN2CCN(c3ccc(C(=O)NS(=O)(=O)c4ccc(N[C@H](CCN5CCOCC5)CSc5ccccc5)c(S(=O)(=O)C(F)(F)F)c4)cc3)CC2)C1 [Navitoclax] (partner 0.5 µM)
Method in brief: as §1

[3] = compound: Cc1ccc(C(=O)Nc2cccc(C(F)(F)F)c2)cc1Nc1cncc(C(N)=O)c1 [ALW-II-49-7] + CC(=O)Nc1cccc(-n2c(=O)n(C3CC3)c(=O)c3c(Nc4ccc(I)cc4F)n(C)c(=O)c(C)c32)c1 [Trametinib] (partner 0.02 µM)
Method in brief: as §1

[4] = compound: C1CC1C(=O)NC2=NNC3=C2C=CC(=C3)C4=CC(=CC=C4)C(=O)NC5CC5 [XMD13-2] + C[C@@H](Oc1cc(-c2cnn(C3CCNCC3)c2)cnc1N)c1c(Cl)ccc(F)c1Cl [Crizotinib] (partner 1 µM)
Method in brief: as §1

| Cell Line | relative viability ([1]; first compound 0.05 µM) | relative viability ([1]; first compound 0.1581 µM) | relative viability ([1]; first compound 0.5 µM) | relative viability ([1]; first compound 1.581 µM) | relative viability ([1]; first compound 5 µM) | relative viability ([2]; first compound 0.05 µM) | relative viability ([2]; first compound 0.1581 µM) | relative viability ([2]; first compound 0.5 µM) | relative viability ([2]; first compound 1.581 µM) | relative viability ([2]; first compound 5 µM) | relative viability ([3]; first compound 0.08 µM) | relative viability ([3]; first compound 0.253 µM) | relative viability ([3]; first compound 0.8 µM) | relative viability ([3]; first compound 2.53 µM) | relative viability ([3]; first compound 8 µM) | relative viability ([4]; first compound 0.05 µM) | relative viability ([4]; first compound 0.1581 µM) | relative viability ([4]; first compound 0.5 µM) | relative viability ([4]; first compound 1.581 µM) | relative viability ([4]; first compound 5 µM) |
| --- | --- | --- | --- | --- | --- | --- | --- | --- | --- | --- | --- | --- | --- | --- | --- | --- | --- | --- | --- | --- |
| LC-2-ad | 1.07 | 1.07 | 0.987 | 0.789 | 0.807 | 0.772 | 0.503 | 0.519 | 0.368 | 0.375 | 0.94 | 0.917 | 0.881 | 0.858 | 0.945 | 0.468 | 0.449 | 0.467 | 0.443 | 0.48 |
| LCLC-97TM1 | 1.04 | 0.918 | 0.975 | 0.965 | 0.685 | 0.475 | 0.456 | 0.278 | 0.409 | 0.227 | 0.184 | 0.207 | 0.198 | 0.161 | 0.223 | 0.432 | 0.318 | 0.265 | 0.374 | 0.256 |
| LK-2 | 1.45 | 0.959 | 1.06 | 1.16 | 1.16 | 1.19 | 0.843 | 0.905 | 0.957 | 0.738 | 0.963 | 0.583 | 0.636 | – | 0.479 | 0.214 | 0.219 | 0.25 | 0.207 | 0.227 |
| LOU-NH91 | 1.01 | 0.979 | 1 | 0.943 | 1.04 | 0.752 | 0.688 | 0.715 | 0.696 | 0.769 | 0.755 | 0.787 | 0.804 | – | 0.706 | 0.791 | 0.659 | 0.769 | 0.727 | 0.782 |
| LU99A | 0.977 | 0.734 | 0.831 | 0.824 | 0.58 | 0.927 | 0.741 | 0.811 | 0.805 | 0.523 | – | 0.622 | 0.62 | 0.374 | 0.399 | 0.581 | 0.489 | 0.558 | 0.429 | 0.393 |
| LXF-289 | 0.979 | 0.973 | 0.897 | 0.98 | 1.06 | 0.965 | 0.956 | 0.988 | 0.914 | 0.93 | 0.604 | 0.715 | 0.681 | 0.67 | 0.626 | 0.863 | 0.831 | 0.473 | 0.789 | 0.811 |
| NCI-H23 | 1.21 | 0.83 | 1.02 | 1.06 | 1.01 | 1.02 | 0.767 | 0.822 | 0.78 | 0.82 | 0.434 | 0.371 | 0.448 | 0.37 | 0.37 | 0.759 | 0.518 | 0.506 | 0.411 | 0.423 |
| NCI-H322M | 1.06 | 1.02 | 0.909 | 0.971 | 1.09 | 1.19 | 1.19 | 1.44 | 1.15 | 1.14 | 0.484 | 0.533 | 0.506 | 0.472 | 0.515 | 0.913 | 0.937 | 1.09 | 0.814 | 1.01 |
| NCI-H441 | 1.1 | 0.902 | 0.956 | 1.06 | 0.661 | 0.93 | 0.685 | 0.715 | 0.615 | 0.762 | 0.41 | 0.494 | 0.381 | 0.69 | 0.443 | 0.842 | 0.715 | 0.875 | 0.656 | 0.578 |
| NCI-H460 | 1.1 | 1.11 | 1.05 | 1.06 | 1.01 | 1.34 | 1.23 | 1.28 | 1.02 | 1.2 | 0.133 | 0.17 | 0.142 | 0.118 | 0.101 | 1.25 | 0.951 | 0.99 | 0.949 | 0.873 |
| NCI-H520 | 0.876 | 0.754 | 0.536 | 0.637 | 0.402 | 1.17 | 1.2 | 1.08 | 1.01 | 0.501 | 0.62 | 0.661 | 0.53 | 0.552 | 0.519 | 0.962 | 0.681 | 0.682 | 0.672 | 0.403 |
| NCI-H596 | 0.89 | 0.62 | 1.03 | 0.852 | 0.888 | 0.99 | 0.975 | 0.917 | 0.898 | 1.15 | 0.684 | 0.786 | 0.769 | 0.791 | 0.912 | 1.05 | 0.916 | 0.98 | 0.884 | 1.05 |
| NCI-H647 | 1.36 | 1.13 | 1.31 | 1.21 | 0.796 | 1.21 | 1.08 | 1.23 | 1.15 | 0.735 | 0.434 | 0.475 | 0.453 | 0.441 | 0.239 | 1.25 | 0.903 | 1.12 | 1.03 | 0.548 |
| NCI-H727 | 1.21 | 0.903 | 0.946 | 0.738 | 0.737 | 0.462 | 0.362 | 0.372 | 0.374 | 0.3 | 0.393 | 0.378 | 0.354 | 0.357 | 0.365 | 0.938 | 0.697 | 1 | 0.771 | 0.687 |
| NCI-H838 | 1.19 | 1.05 | 1.01 | 1.04 | 1.01 | 1.26 | 1.16 | 1.13 | 1.22 | 1.18 | 0.631 | 0.531 | 0.433 | 0.49 | 0.453 | 0.917 | 0.891 | 0.814 | 0.883 | 0.848 |
| NCI-H1355 | 1.08 | 0.944 | 1.04 | 1.08 | 1.1 | 0.971 | 0.941 | 0.904 | 0.899 | 0.89 | 0.371 | 0.467 | 0.474 | 0.384 | 0.438 | 1.07 | 1.12 | 1.09 | 1.01 | 0.941 |
